Data reported in ChEMBL document CHEMBL1275557, “First countrywide survey of acquired metallo-beta-lactamases in gram-negative pathogens in Italy” (2008).

Experiments:
Assay type in all cases: functional
Pseudomonas aeruginosa [1] = assay: Antibacterial activity against VIM-1 producing Pseudomonas aeruginosa clone E isolate VA-06X-29 by Etest method
Pseudomonas aeruginosa [2] = assay: Antibacterial activity against VIM-2 producing Pseudomonas aeruginosa clone B3 isolate PV-05X-02 by Etest method
Pseudomonas putida = assay: Antibacterial activity against VIM-1 producing Pseudomonas putida isolate RM-11X-11 by Etest method
Pseudomonas aeruginosa [3] = assay: Antibacterial activity against IMP-13 producing Pseudomonas aeruginosa clone C3 isolate PG-12X-03 by Etest method
Pseudomonas aeruginosa [4] = assay: Antibacterial activity against VIM-2 producing Pseudomonas aeruginosa clone B3 isolate CR-04X-14 by Etest method
Enterobacter cloacae = assay: Antibacterial activity against VIM-1 producing Enterobacter cloacae isolate TO-16X-51 by Etest method
Pseudomonas aeruginosa [5] = assay: Antibacterial activity against VIM-1 producing Pseudomonas aeruginosa clone A3 isolate FG-17X-08 by Etest method
Pseudomonas aeruginosa [6] = assay: Antibacterial activity against VIM-1 producing Pseudomonas aeruginosa clone F isolate RM-11X-09 by Etest method
Pseudomonas aeruginosa [7] = assay: Antibacterial activity against IMP-13 producing Pseudomonas aeruginosa clone C2 isolate NA-14X-11 by Etest method
Pseudomonas aeruginosa [8] = assay: Antibacterial activity against VIM-1 producing Pseudomonas aeruginosa clone G isolate NA-14X-13 by Etest method
Pseudomonas aeruginosa [9] = assay: Antibacterial activity against VIM-1 producing Pseudomonas aeruginosa clone A1 isolate FG-17X-14 by Etest method
Pseudomonas aeruginosa [10] = assay: Antibacterial activity against VIM-1 producing Pseudomonas aeruginosa clone D isolate VA-06X-69 by Etest method
Pseudomonas aeruginosa [11] = assay: Antibacterial activity against VIM-2 producing Pseudomonas aeruginosa clone B2 isolate VA-06X-28 by Etest method
Pseudomonas aeruginosa [12] = assay: Antibacterial activity against IMP-13 producing Pseudomonas aeruginosa clone C2 isolate NA-14X-12 by Etest method
Pseudomonas aeruginosa [13] = assay: Antibacterial activity against VIM-1 producing Pseudomonas aeruginosa clone D1 isolate VA-06X-63 by Etest method
Pseudomonas aeruginosa [14] = assay: Antibacterial activity against VIM-2 producing Pseudomonas aeruginosa clone B2 isolate VA-06X-20 by Etest method
Pseudomonas aeruginosa [15] = assay: Antibacterial activity against VIM-1 producing Pseudomonas aeruginosa clone D2 isolate VA-06X-17 by Etest method
Pseudomonas aeruginosa [16] = assay: Antibacterial activity against VIM-1 producing Pseudomonas aeruginosa clone A2 isolate NA-14X-21 by Etest method
Pseudomonas aeruginosa [17] = assay: Antibacterial activity against VIM-2 producing Pseudomonas aeruginosa clone B2 isolate VA-06X-38 by Etest method
Pseudomonas aeruginosa [18] = assay: Antibacterial activity against IMP-13 producing Pseudomonas aeruginosa clone C1 isolate AV-13X-28 by Etest method
Pseudomonas aeruginosa [19] = assay: Antibacterial activity against VIM-1 producing Pseudomonas aeruginosa clone D2 isolate VA-06X-16 by Etest method
Pseudomonas aeruginosa [20] = assay: Antibacterial activity against VIM-1 producing Pseudomonas aeruginosa clone D4 isolate VA-06X-47 by Etest method
Pseudomonas aeruginosa [21] = assay: Antibacterial activity against VIM-1 producing Pseudomonas aeruginosa clone A2 isolate NA-14X-32 by Etest method
Pseudomonas aeruginosa [22] = assay: Antibacterial activity against VIM-1 producing Pseudomonas aeruginosa clone A2 isolate NA-14X-26 by Etest method
Pseudomonas aeruginosa [23] = assay: Antibacterial activity against IMP-13 producing Pseudomonas aeruginosa clone C2 isolate NA-14X-02 by Etest method
Pseudomonas aeruginosa [24] = assay: Antibacterial activity against VIM-2 producing Pseudomonas aeruginosa clone B1 isolate SS-09X-45 by Etest method
Pseudomonas aeruginosa [25] = assay: Antibacterial activity against IMP-13 producing Pseudomonas aeruginosa clone C2 isolate NA-14X-10 by Etest method
Pseudomonas aeruginosa [26] = assay: Antibacterial activity against VIM-1 producing Pseudomonas aeruginosa clone A3 isolate NA-14X-34 by Etest method
Pseudomonas aeruginosa [27] = assay: Antibacterial activity against VIM-2 producing Pseudomonas aeruginosa clone B3 isolate PV-05X-07 by Etest method
Pseudomonas aeruginosa [28] = assay: Antibacterial activity against VIM-1 producing Pseudomonas aeruginosa clone D3 isolate VA-06X-65 by Etest method

GENTAMICIN gave an MIC (Pseudomonas aeruginosa [1]) greater than 128 µg/mL, an MIC (Pseudomonas aeruginosa [2]) of 8 µg/mL and an MIC (Pseudomonas putida) of 4 µg/mL. It also gave an MIC (Pseudomonas aeruginosa [3]) greater than 128 µg/mL, an MIC (Pseudomonas aeruginosa [4]) of 8 µg/mL and an MIC (Enterobacter cloacae) of 2 µg/mL. The MIC (Pseudomonas aeruginosa [5]) was greater than 128 µg/mL, the MIC (Pseudomonas aeruginosa [6]) was greater than 128 µg/mL and the MIC (Pseudomonas aeruginosa [7]) was greater than 128 µg/mL. The MIC (Pseudomonas aeruginosa [8]) was greater than 128 µg/mL, the MIC (Pseudomonas aeruginosa [9]) was greater than 128 µg/mL and the MIC (Pseudomonas aeruginosa [10]) was greater than 128 µg/mL. For the same sequence, the MIC (Pseudomonas aeruginosa [11]) was 8 µg/mL, the MIC (Pseudomonas aeruginosa [12]) was greater than 128 µg/mL and the MIC (Pseudomonas aeruginosa [13]) was greater than 128 µg/mL. It also gave an MIC (Pseudomonas aeruginosa [14]) of 8 µg/mL, an MIC (Pseudomonas aeruginosa [15]) greater than 128 µg/mL and an MIC (Pseudomonas aeruginosa [16]) greater than 128 µg/mL. It also gave an MIC (Pseudomonas aeruginosa [17]) of 8 µg/mL, an MIC (Pseudomonas aeruginosa [18]) greater than 128 µg/mL and an MIC (Pseudomonas aeruginosa [19]) greater than 128 µg/mL. It also gave an MIC (Pseudomonas aeruginosa [20]) greater than 128 µg/mL, an MIC (Pseudomonas aeruginosa [21]) greater than 128 µg/mL and an MIC (Pseudomonas aeruginosa [22]) greater than 128 µg/mL. The MIC (Pseudomonas aeruginosa [23]) was greater than 128 µg/mL, the MIC (Pseudomonas aeruginosa [24]) was greater than 128 µg/mL and the MIC (Pseudomonas aeruginosa [25]) was greater than 128 µg/mL. The MIC (Pseudomonas aeruginosa [26]) was greater than 128 µg/mL, the MIC (Pseudomonas aeruginosa [27]) was 8 µg/mL and the MIC (Pseudomonas aeruginosa [28]) was greater than 128 µg/mL.
